Molecular target: T1, human NCX1 (Homo sapiens, UniProt P32418)
T1 construct: expressed in transfected cells
Assay: NCX1 inhibition, forward mode (Ca2+ efflux out of cells), FLIPR calcium assay
Assay type: cell-based
Conditions: CHO cells stably expressing human NCX1, read-out: NCX1fw IC50
Description: The sodium/calcium exchanger NCX1 can transport calcium ions and sodium ions through the cell membrane. The transport is an exchange of Ca^2+ and Na^+ in two directions depending on membrane potential and ion gradients. At the first direction, named “forward mode” or “calcium export mode”, Ca^2+ is transported out of the cell and Na^+ is transported into the cell. At the other direction, named “reverse mode” or “calcium import mode”, the transport directions are vice versa. The effect of the compounds of the invention on NCX1 was determined in CHO cells stably expressing human NCX1 (gene symbol SLC8A1; cf. WO 2009/115238). The assay is based on the monitoring of intracellular Ca^2+ concentrations using a calcium-sensitive fluorescence dye which is detected by means of a FLIPR device (Fluorimetric Imaging Plate Reader, Molecular Devices).
The assay is based on the monitoring of intracellular Ca^2+ concentrations using the PBX Calcium Assay Kit from BD (Becton, Dickinson and Company) with calcium indicator dye 51-9000177BKa (BD, 640177). CHO cells expressing NCX1 were loaded with the dye, and after a preincubation period with the test compound, Ionomycin (Calbiochem, 407950) was added. Ionomycin is an ionophor for Ca^2+ ions mediating an increase of intracellular Ca^2+ ions. Consequently, intracellular Ca^2+ ions are exchanged against extracellular Na^+ ions (Ca^2+ efflux, forward mode). The decrease of intracellular Ca^2+ ions was detected by measuring the fluorescence of the calcium indicator dye at a wavelength of 520 nm by a FLIPR device.
Briefly, similarly as for the reverse mode, for the forward mode transport assay 18000 cells per well were seeded into a 96 well microplate (Corning COSTAR 3904) and incubated overnight in culture medium (cf. above). A total volume of 100 μl medium per well was used. For the preparation of the FLIPR assay, the culture medium was removed from the plates and 100 μl of assay buffer (133.8 mM NaCl (Sigma, S5886); 4.7 mM KCl (Sigma, P3911); 1.25 mM MgCl2 (Merck, 1.05833.0250); 3.5 mM CaCl2(Merck, 1.02083.0250); 5 mM glucose (Sigma, G7021); 10 mM Hepes (Sigma, H4034); pH 7.4)) were added to each well in a washing step. Assay buffer was removed, and 100 μl of a solution of the test compound in assay buffer in different concentrations were added into the wells. Further, 100 μl of dye solution (0.09% (v/v) calcium indicator dye, 9.1% (v/v) signal enhancer (from PBX Calcium Assay Kit); in assay buffer) were added into each well. The plates were incubated in the dark at room temperature for 60 min. Meanwhile a 10 μM solution of Ionomycin in assay buffer (additionally containing 0.05% fetal calf serum (cf. above); 4° C.) was prepared and stored in the wells of a 96 well microplate (96 well microplate, polypropylene, U-shape (Greiner Bio-One, 650201)). The fluorescence monitoring was performed at 60 measuring points with measurement intervals of 2 sec. After the fifth measuring point, 50 μl of the Ionomycin solution were added to each well of the assay plate to give a final Ionomycin concentration of 2 μM. For the determination of the IC50 values the minimal fluorescence value was subtracted from the maximal fluorescence value for the fifteenth to fifty-fifth measuring points. The calculation of the IC50 values via the percentage inhibitions of Ca^2+ efflux out of cells (forward mode) effected by the test compound was performed in Biost@t Speed 2.0. “NCX1fw IC50” in Table 2 means the IC50 value for inhibition of NCX1 in forward mode (in μM (micromol/liter)).

IC50 [nM] | Compound
600 | Cc1ccccc1C1CCc2cc(Oc3ncc(C(=O)NCCO)s3)ccc2O1 (centres unmarked) [Example 299, 2-(2-o-Tolyl-chroman-6-yloxy)-thiazole-5-carboxylic acid (2-hydroxy-ethyl)-amide]
2500 | Cc1ccccc1C1CCc2cc(Oc3ncc(CNC(=O)c4ccno4)s3)ccc2O1 (centres unmarked) [Example 329, Isoxazole-5-carboxylic acid [2-(2-o-tolyl-chroman-6-yloxy)-thiazol-5-ylmethyl]-amide]

From patent publication US20140243292A1, “SUBSITUTED 2-(CHROMAN-6-YLOXYL)-THIAZOLES AND THEIR USE AS PHARMACEUTICALS” (Sanofi, priority 2011, published 2014)
